Laboratory results taken from ChEMBL document CHEMBL3430912, “GSK Tres Cantos Anti-Kinetoplastid Screening (TCAKS) Data”.

Key:
[1] = test system: Trypanosoma cruzi; assay: GSK_TCAKS: pIC50 Trypanosoma cruzi viability assay using beta-GAL activity. This assay was run at single shot at 5uM compound concentration per well. The biological reagents consisted of NIH-3T3 host cells and trypomastigotes parasitic cells; both cell types were set to a 3.3 * 10^5 cells/mL dilution in assay DMEM by means of a CASY cell counter device using a 60um capillary. 6 uL of the mixture were dispensed per well (about 1 * 10^3 host-cells and 1 * 10^3 parasites) with a Multidrop Combi dispenser. […] In all wells, the percentage of DMSO never exceeded 0.5%. Plates incubated for four days at 37C, 5% CO2. The substrate used for the assay fluorescence intensity (FLINT) readout was resorufin-beta-D-galactopiranoside (Sigma-Aldrich) at 5uM per well. It was diluted in PBS supplemented with the soft detergent Igepal (Fluka).; type: functional, organism-based, Mus musculus; conditions: Tulahuen, NIH3T3
[2] = test system: Trypanosoma cruzi; assay: (§1) GSK_TCAKS: pIC50 Trypanosoma cruzi Imaging: Infected Cells. […] Cells were then washed once with PBS before infection. T. cruzi trypomastigotes, collected at days 5 to 8 after infection from LLC-MK2 parasite infected cultures, were allowed to swim out for 4h at 37C from a centrifuged pellet (2,500 rpm/10 min/room temperature). Trypomastigotes were then collected and counted in a CASY Cell Counter. Trypomastigotes, in supplemented DMEM, were added to H9c2 cultures in a multiplicity of infection of 1 and incubated for 18 h. Cells were washed once with PBS before incubation of the infected H9c2 monolayer with trypsin (Life-Technologies) to detach cells from the flask. Cells were counted in a CASY Cell Counter using a 150 um capillary and their density set at 5 * 10^4 cells per mL in supplemented assay DMEM. Infected H9c2 were dispensed into 384-well poly-lysine coated assay plates at 50uL per well using a Multidrop Combi dispenser. After seeding them, the plates were incubated at 37C, 5% CO2 for 72h. Cultures were then fixed and stained by addition of 50 uL of a solution containing 8% formaldehyde and 4 uM DRAQ5 DNA dye (BioStatus, UK) per well. […] Five images were collected per well for reliable statistical analysis. Automated image analysis was performed with a script developed on Acapella High Content Imaging and Analysis Software (PerkinElmer). Output: percentage of infected cells per well as a second infection marker.; type: functional, organism-based, Rattus norvegicus; conditions: H9c2, 4 h
[3] = test system: Trypanosoma cruzi; assay: GSK_TCAKS: pIC50 Trypanosoma cruzi Imaging: Amastigotes/Cell. […] Cells were then washed once with PBS before infection. T. cruzi trypomastigotes, collected at days 5 to 8 after infection from LLC-MK2 parasite infected cultures, were allowed to swim out for 4h at 37C from a centrifuged pellet (2,500 rpm/10 min/room temperature). Trypomastigotes were then collected and counted in a CASY Cell Counter. Trypomastigotes, in supplemented DMEM, were added to H9c2 cultures in a multiplicity of infection of 1 and incubated for 18 h. Cells were washed once with PBS before incubation of the infected H9c2 monolayer with trypsin (Life-Technologies) to detach cells from the flask. Cells were counted in a CASY Cell Counter using a 150 um capillary and their density set at 5 * 10^4 cells per mL in supplemented assay DMEM. Infected H9c2 were dispensed into 384-well poly-lysine coated assay plates at 50uL per well using a Multidrop Combi dispenser. After seeding them, the plates were incubated at 37C, 5% CO2 for 72h. Cultures were then fixed and stained by addition of 50 uL of a solution containing 8% formaldehyde and 4 uM DRAQ5 DNA dye (BioStatus, UK) per well. […] Five images were collected per well for reliable statistical analysis. Automated image analysis was performed with a script developed on Acapella High Content Imaging and Analysis Software (PerkinElmer). Output: number of amastigotes per cell as infection level measurement.; type: functional, organism-based, Rattus norvegicus; conditions: H9c2, 4 h
[4] = test system: Trypanosoma cruzi; assay: as §1, with “H2C9” for “Trypanosoma cruzi”, “H9c2 Host Cardiomyocytes.” for “Infected Cells.”, “Number” for “percentage”, “H9c2 Host Cardiomyocytes nuclei to determine drug-related cytotoxicity.” for “infected cells per well as a second infection marker.”; type: functional, organism-based, Rattus norvegicus; conditions: H9c2, 4 h
[5] = test system: Leishmania donovani; assay: GSK_TCAKS: pIC50 Leishmania donovani viability assay using fluorescence intensity. Assay plates (1536-well) were prepared by adding 30nL per well of compound. For single shot assay, the final compound concentration was 5uM. […] Briefly, eGFP LdBOB axenic amastigotes were harvested, fixed and counted in a CASY cell counter (Roche-Applied Science). A final concentration of 1.5 * 10^5 cells per well were prepared in amastigote media containing 500 U/mL penicillin/streptomycin (Invitrogen) and 6uL was dispensed to each experimental well using a Multidrop Combi dispenser (Thermo Scientific). 6uL of assay media was dispensed to control columns used as reference for 100% compound response. Following incubation for 72 h at 37C, 5% CO2, 2 uL of resazurin was added to each well at a final concentration of 0.5 mM in phosphate buffered saline (PBS) with IGEPAL (Sigma-Aldrich), 0.05% (v/v).; type: functional, organism-based
[6] = test system: Leishmania donovani; assay: GSK_TCAKS: pIC50 Leishmania donovani Imaging: Infected Macrophages. Assay plates (384-well) were prepared by adding 250nL of compound to each well. For single shot assay, the final compound concentration was 5 uM. […] Automated image analysis was performed with a script developed on Acapella High Content Imaging and Analysis Software (PerkinElmer). Output: Percent of infected macrophage cells were reported for each well.; type: functional, organism-based, Homo sapiens; conditions: THP-1
[7] = test system: Leishmania donovani; assay: GSK_TCAKS: pIC50 Leishmania donovani Imaging: Amastigotes/Macrophages. Assay plates (384-well) were prepared by adding 250nL of compound to each well. For single shot assay, the final compound concentration was 5 uM. […] Automated image analysis was performed with a script developed on Acapella High Content Imaging and Analysis Software (PerkinElmer). Output: Average number of amastigotes per macrophage cell were reported for each well.; type: functional, organism-based, Homo sapiens; conditions: THP-1
[8] = test system: Leishmania donovani; assay: GSK_TCAKS: pIC50 Leishmania donovani Imaging: THP-1 Host Macrophages. Assay plates (384-well) were prepared by adding 250nL of compound to each well. For single shot assay, the final compound concentration was 5 uM. […] Automated image analysis was performed with a script developed on Acapella High Content Imaging and Analysis Software (PerkinElmer). Output: THP-1 cell count were reported for each well.; type: functional, organism-based, Homo sapiens
[9] = test system: Trypanosoma brucei brucei; assay: GSK_TCAKS: pIC50 Trypanosoma brucei viability assay using fluorescence intensity. Assay plates (1536-well) were prepared by dispensing 25nL of compound solution per well using an Echo acoustic dispenser (Labcyte).; type: functional, organism-based; conditions: Lister 427, 2 h
[10] = test system: Trypanosoma brucei brucei; assay: GSK_TCAKS: pIC50 Trypanosoma brucei viability assay using luminiscence. Assay plates (1536-well) were prepared. T. brucei cultures were harvested and counted in a CASY cell counter. A parasite suspension was prepared at a final concentration of 5 * 10^4 cells/mL in complete HMI9 medium and 6uL was dispensed to all wells containing compounds using a Multidrop Combi dispenser. 6uL of HMI9 media with 0.4% DMSO were dispensed to control columns. Plates were incubated for 24 h at 37C, 5% CO2 then tempered for 10 min at room temperature. ATP content was quantified by adding 4 uL of CellTiter-Glo Reagent (Promega) according to the manufacturer's instructions. Luminescence was measured using a ViewLux.; type: functional, organism-based; conditions: Lister 427, CASY
[11] = GSK_TCAKS: pIC50 HepG2 human cell line viability assay using luminiscence. […] Seeding density was checked to ensure that new mono-layers were not more than 50% confluent at the time of harvesting. Cell suspension was added to 500 mL of the same medium at a final density of 1.2 * 10^5 cells/mL. This cell suspension was dispensed (25 uL, 3000 cells per well) into 384-well clear-bottom plates using a Multidrop Combi dispenser. Prior to addition of the cell suspension, the screening compounds (250 nL) were pre-dispensed into the plates with an Echo liquid handler. Plates were incubated for 48 h at 37C, 5% CO2. After incubation, plates equilibrated at room temperature for 30 min before proceeding to develop the luminescent signal. The signal developer, CellTiter-Glo Reagent, was allowed to equilibrate at room temperature for 30 min and added to the plates (25uL per well) using a Multidrop Combi dispenser. Plates were left for 10 min at room temperature for stabilization and then read using a ViewLux.; type: toxicity, cell-based
[12] = target: Sterol 14-alpha demethylase (Trypanosoma cruzi (strain CL Brener), UniProt Q7Z1V1); assay: GSK_TCAKS: pIC50 CYP51 from Trypanosoma cruzi.; type: functional
Sequence of Sterol 14-alpha demethylase (Q7Z1V1 whole entry): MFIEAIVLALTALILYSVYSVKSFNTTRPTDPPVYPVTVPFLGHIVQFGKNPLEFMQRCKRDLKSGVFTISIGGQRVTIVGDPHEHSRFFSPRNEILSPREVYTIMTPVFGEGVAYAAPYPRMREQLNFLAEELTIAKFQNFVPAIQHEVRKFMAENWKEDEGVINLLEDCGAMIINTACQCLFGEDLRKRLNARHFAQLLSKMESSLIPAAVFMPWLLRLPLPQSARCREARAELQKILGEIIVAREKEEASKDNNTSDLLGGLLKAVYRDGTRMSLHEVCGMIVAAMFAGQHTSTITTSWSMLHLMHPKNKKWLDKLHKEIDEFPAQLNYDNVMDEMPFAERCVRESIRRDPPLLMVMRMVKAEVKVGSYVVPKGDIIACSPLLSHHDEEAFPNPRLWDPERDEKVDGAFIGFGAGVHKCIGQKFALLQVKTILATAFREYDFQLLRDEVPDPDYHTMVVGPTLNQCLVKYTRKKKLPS

Row | SMILES | IC50 [1] | IC50 [2] | IC50 [3] | IC50 [4] | IC50 [5] | IC50 [6] | IC50 [7] | IC50 [8] | IC50 [9] | IC50 [10] | IC50 at 48 h [11] | IC50 [12]
1 | Cc1cc(NC(=O)C2CCCCC2)n(-c2nc3c(c(=O)[nH]2)CCC3)n1 | 0.316 µM | 0.501 µM | 0.158 µM | 2 µM | 0.0398 µM | 5.01 µM | 3.16 µM | 10 µM | 0.126 µM | 0.158 µM | 50.1 µM | > 100 µM
2 | Cc1cc(NC(=O)CC2CCCCC2)n(-c2nc3c(c(=O)[nH]2)CCC3)n1 | 0.251 µM | 0.316 µM | 0.126 µM | 3.98 µM | 0.0316 µM | 3.16 µM | 1.58 µM | 3.98 µM | 0.2 µM | 0.158 µM | > 100 µM | > 100 µM
3 | Cc1ccc2c(c1)SC(C(=O)Nc1nnc(-c3ccccn3)[nH]1)C2 (centres undefined) | 5.01 µM | 7.94 µM | 6.31 µM | > 50.1 µM | 6.31 µM | 3.98 µM | 2.51 µM | 25.1 µM | 3.98 µM | > 39.8 µM | 25.1 µM | > 100 µM
4 | Cn1nccc1NC(=O)Cn1ccc(-c2ccncc2)n1 | > 50.1 µM | > 50.1 µM | > 50.1 µM | > 50.1 µM | > 50.1 µM | > 50.1 µM | > 50.1 µM | > 50.1 µM | 0.631 µM | 0.631 µM | > 100 µM | 6.31 µM
5 | Cc1cn[nH]c1C1CCCN(Cc2nc3ccccc3n2C)C1 (centres undefined) | 3.16 µM | 20 µM | 10 µM | > 50.1 µM | 15.8 µM | 3.98 µM | 3.16 µM | 20 µM | 6.31 µM | 7.94 µM | 50.1 µM | 1.26 µM
6 | COc1ccc(Cl)cc1CC(=O)Nc1nnc(-c2ccccn2)[nH]1 | 10 µM | > 50.1 µM | 10 µM | > 50.1 µM | 3.98 µM | 6.31 µM | 5.01 µM | > 50.1 µM | 15.8 µM | > 39.8 µM | 31.6 µM | > 100 µM
7 | O=C(Cc1ccc2c(c1)CCC2)Nc1nnc(-c2ccccn2)[nH]1 | 10 µM | 10 µM | 10 µM | > 50.1 µM | 7.94 µM | 6.31 µM | 6.31 µM | > 50.1 µM | 20 µM | > 39.8 µM | 50.1 µM | 2.51 µM
8 | COc1ccc(Nc2nccc(N(C)c3n[nH]c4c(F)cccc34)n2)cc1S(C)(=O)=O | 2 µM | 3.98 µM | 2 µM | 7.94 µM | 25.1 µM | 2.51 µM | 1 µM | 10 µM | 6.31 µM | 10 µM | 20 µM | 31.6 µM
9 | COc1ccccc1CNc1cc(C2CC2)nc(-c2nccn2C)n1 | 0.891 µM | 0.794 µM | 1 µM | 0.631 µM | 1 µM | 0.501 µM | 0.398 µM | 15.8 µM | 2.51 µM | 2 µM | 20 µM | 20 µM
10 | COc1ccc(CNc2cc(C3CC3)nc(-c3nccn3C)n2)cc1 | 1 µM | 0.794 µM | 0.631 µM | 1 µM | 2 µM | 0.794 µM | 0.794 µM | 12.6 µM | 1.26 µM | 2.51 µM | 25.1 µM | 5.01 µM
11 | Cc1ccccc1CNc1cc(C2CC2)nc(-c2nccn2C)n1 | 0.794 µM | 0.794 µM | 0.794 µM | 0.794 µM | 1.58 µM | 0.631 µM | 0.631 µM | 10 µM | 2.51 µM | 1.58 µM | 15.8 µM | 15.8 µM
12 | Cn1ccnc1-c1nc(NCc2ccccc2Cl)cc(C2CC2)n1 | 0.631 µM | 0.794 µM | 0.794 µM | 0.631 µM | 1.58 µM | 0.631 µM | 0.2 µM | 7.94 µM | 2 µM | 1.58 µM | 20 µM | 39.8 µM
